According to patent US20230096203A1, “METHODS FOR DETECTING FOOD ALLERGIES” (THE REGENTS OF THE UNIVERSITY OF MICHIGAN, priority 2020, published 2023):

Test system: CFTR-dependent Cl— transport
Experiment: Ussing chamber: forskolin-induced short-circuit current of jejunum segments pre-incubated ex vivo with ion channel blockers
Design: species or system BALB/c wild-type (WT) mice
Conditions: jejunum of OVA-treated mice; DIDS (100 μM) or CFTRInh172 (20 μM) in mucosal reservoir
Experimental: Oral Antigen-Induced Intestinal Anaphylaxis. 4-8-week-old mice were sensitized to ovalbumin (OVA) ([…] of OVA/1 mg of alum in sterile saline by intraperitoneal (i.p.) injection) and received repeated oral gavage (o.g.) challenge with OVA (250 μl of OVA (50 mg) in saline or 250 μl of saline (vehicle)) as previously described (Ahrens et al., American Journal of Pathology 180, 1535-1546, doi:10.101/j.ajpath.2011.12.036 (2012)). Prior to each o.g. challenge, mice were deprived of food for 4-5 hours. Rectal temperatures were measured prior to challenge and then every 15 minutes for 60 minutes. […] Evidence of secretory diarrhea was assessed by determination of short-circuit current (Isc) of small intestine (Si) segments ex vivo in a Ussing chamber system up to 60 minutes following o.g. challenge. […]
Ussing chambers. […] The transepithelial potential difference (PD) was detected with two paired electrodes that contained 4% agar in 3 M KCl. […] To establish equilibrium, PD was continuously monitored under open-circuit conditions for 15 min. […] For ion conductance experiments, changes in Isc were determined for the cumulative addition of forskolin and acetylcholine to the serosal reservoir. After the peak response to the final concentration of each agonist was recorded, the Krebs buffer on each side of the chamber was replaced, and the tissue was allowed to equilibrate for 30 minutes. […]

Structure (SMILES): O=S(=O)(O)c1cc(N=C=S)ccc1C=Cc1ccc(N=C=S)cc1S(=O)(=O)O [DIDS, 4,4′-Diisothiocyanatostilbene-2,2′-disulfonate]
- Forskolin-induced ΔIsc: not

Structure (SMILES): O=C(O)c1ccc(/C=C2\SC(=S)N(c3cccc(C(F)(F)F)c3)C2=O)cc1 [CFTR^inh172]
- Forskolin-induced ΔIsc: abrogated
